# Data published in patent publication US20170360897A1, “POLYPEPTIDE AND POLYPEPTIDE COMPLEX FOR SUPPRESSING TUMOR METASTASIS AND TREATING LEUKEMIA AS WELL AS PREPARATION METHOD THEREFOR AND APPLICATION THEREOF” (National Center for Nanoscience and Technology, China, priority 2014, published 2017).
# Where two headings read alike, the source gives them in different places. No end group written: not given here. *: point of attachment. Biotin = O=C1N[C@H]2[C@H](CS[C@H]2CCCCC(=O)*)N1
# Assays:
# [1] = test system: HL-60 cells; details: CXCL12 200 ng/mL, 24 h
# Method: (§1) HL-60 and U937 cells were harvested in logarithmic growth phase and suspended in RPMI-1640 medium without FBS. 200 μL of the suspension containing 20×10^4 cells and aqueous solutions of E5 at different concentrations were added to the upper chamber of a trans well chamber (PET microporous filter membrane with a diameter of […] was used for HL-60, and PET microporous filter membrane with a diameter of 5 μm was used for U937) so that the final concentration of the polypeptide molecule was 0.1 μM, 1.0 μM, and 10 μM respectively, and an aqueous solution was added for use as a blank control. 800 μL of the RPMI-1640 medium without FBS was added to the lower chamber, along with adding aqueous solutions of CXCL12 at concentrations of 200 ng/mL and 50 ng/mL respectively to induce HL-60 and U937 cells. The culture plates were incubated in an incubator under 37° C., 5% CO2 for 24 h. The trans well chambers were removed and the number of the migrated cells in the lower chamber was calculated.
# [2] = test system: U937 cells; details: CXCL12 50 ng/mL, 24 h
# Method: as §1
# [3] = test system: leukemia cells HL-60 and U937 cells; details: 24 h
# Method: The effect of E5 polypeptide on the apoptosis of leukemia cells HL-60 and U937 cells was examined by FITC-Annexin V/PI (eBioscience, Australia) double-staining assay. HL-60 and U937 cells were harvested in logarithmic growth phase. The cell suspensions and E5 aqueous solutions at different concentrations were added to 24-well plates. After incubation for 24 h, the cells were collected and washed with PBS. FITC-Annexin V and PI were added after the cells were resuspended in a binding buffer (10 mM Hepes/NaOH, pH 7.4, 140 mM NaCl, 2.5 mM CaCl2). After incubating for 10 min at room temperature, 1.5×10^4 cells were analyzed by flow cytometer (Accuri C6, BD, USA).
# [4] = test system: NOD/SCID mice transplanted with HL-60 cells; details: 30 mg/kg subcutaneous, twice a week from day 20 after transplantation
# Method: The 5-week-old female NOD/SCID mice (purchased from the Animal Experimental Center of the Institute of Basic Medical Science, Chinese Academy of Medical Sciences) cultured in a special sterile environment were used. Prior to the experiment, animals should be acclimated to the laboratory environment for 1 week. 1×10^6 HL-60 cells were suspended in 100 μL ethylene diamine tetracetic acid sodium (EDTA)/PBS and injected intravenously into NOD/SCID mice subjected to sub-lethal irradiation (250 cGy). […] From day 20 after transplantation, the mice were injected with E5 (30 mg/kg, n=9), cyclophosphamide (CTX, 36 mg/kg, n=9), or sterile water (n=8) respectively twice a week to observe the state and weight changes of the mice, wherein E5 and sterile water were injected into mice by subcutaneous injection and cyclophosphamide was injected into mice by intraperitoneal injection.
substance,measurement,setting,value
Biotin-GGRSFFLLRRIQGCRFRNTVDD [E5],decrease of migration ability of HL-60 cells (longitudinal),[1]; 0.1 μM,35.00%
same,decrease of migration ability of HL-60 cells (longitudinal),[1]; 1.0 μM,39.00%
same,decrease of migration ability of HL-60 cells (longitudinal),[1]; 10 μM,64.00%
same,decrease of migration ability of U937 cells (longitudinal),[2]; 0.1 μM,17.00%
same,decrease of migration ability of U937 cells (longitudinal),[2]; 1.0 μM,23.00%
same,decrease of migration ability of U937 cells (longitudinal),[2]; 10 μM,20.00%
same,apoptosis rate of leukemia cells,[3]; 50 μM,10%
same,apoptosis rate of leukemia cells,[3]; 80 μM,22%
same,effect on apoptosis of leukemia cells HL-60 and U937 cells,[3]; concentration below 20 μM,negligible
same,apoptosis rate of leukemia cells,[3]; concentration higher than 20 μM,increased rapidly
same,survival time of mice versus cyclophosphamide group and control group,[4],longer survival time
same,weight of mice versus cyclophosphamide group and control group,[4],much higher
